As usually defined, the pIC50 is −log10 of the IC50, conventionally taken in molar units.

Our source for the IC50 values is patent US20210121437A1, “[…] AGENTS […] FLAVONOID DERIVATIVES TARGETING KINASES, SIRTUINS AND ONCOGENIC AGENTS FOR THE TREATMENT OF MULTIPLE MYELOMA, LYMPHOMA, AND […]” (priority 2015, published 2021).

pIC50: −log10 of the molar value. Where only a bound is given, the exact number is not on record here.

The subject of one assay is Normal Bone marrow. The assay can be described thus: anticancer cell proliferation assay (WST-1). The class given is cell-based. The conditions noted are these: Table 4. The method, then:
(§1) Bioactivity of the above-described compounds has been verified by an anticancer cell proliferation assay using the WST-1 (4-[3-(4-iodophenyl)-2-(4-nitrophenyl)-2H-5-tetrazoliol-1, 3-benzene disulfonate) colorimetric assay by Roche Life Sciences®. Anticancer activity was tested against several standard cancer cell lines including brain, breast, Kaposi sarcoma, leukemia, lung, melanoma, tenosynovial giant cell tumor, ovarian, pancreatic, colon and prostate cancer. Cells were trypsinized and plated into 96 well plates in 50 μl of media and incubated overnight. The next day approximately 18 hours after plating, 50 μl of media containing the required flavonoid-based pharmaceutical composition was added per well. Cells were plated at a density so that 72 hours post drug addition, the cells will be in log phase (500-2000 cells/well). The compounds and extracts were solubilized in Dimethyl sulfoxide (DMSO). The cells are allowed to proliferate for 72 hours 37° C. in humidified atmosphere of 5% CO2. The experiment is terminated using WST-1 (Roche®) 10 μl per well and absorbance is read at 450 nm/690 nm. The effect of drugs on growth is assessed as percent of cell viability. The IC50 values were determined from the extract dose versus control growth curves using Graphpad Prism® software. All experiments were carried out in duplicate and the mean results determined.
On the technique in general: Tetrazolium dyes change colour on reduction, which living cells bring about.

In another assay the target is T1, FLT3(D835Y) (Homo sapiens, UniProt P36888, D835Y).
T1 construct: full-length constructs were used for small, single domain kinases, and catalytic domain constructs for large multi-domain kinases; T7 phage fusion (most assays) or DNA tag for qPCR (HEK-293-made kinases); made in house
The class given is binding. As to conditions: Table 4; read-out: IC50 Kinases FLT3-D835Y. The method, then: Cannabis flavonoids and their analogs were subjected to kinase inhibition assay. The compounds were first screened at a single concentration of 10 μM in the primary assay. […] To determine the kd or IC50 values, competition binding assays were established, authenticated and executed as described previously. […] See also, Karaman et al., “A Quantitative Analysis Of Kinase Inhibitor Selectivity”, Nat. Biotechnol. […] For most assays, kinases were fused to T7 phage strains (Fabian, supra) and for the other assays, kinases were produced in HEK-293 cells after which they were tagged with DNA for quantitative PCR detection. In general, full-length constructs were used for small, single domain kinases, and catalytic domain constructs for large multi-domain kinases. […] The liganded beads were blocked with excess biotin and washed with blocking buffer (SeaBlock (Pierce), 1% BSA, 0.05% Tween 20, 1 mM DTT) to remove unbound ligand and to reduce non-specific phage binding. […] All reactions were performed in polypropylene 384-well plates in a final volume of 0.04 ml. […] The kinase concentration in the eluates was measured by quantitative PCR. An illustration of the kinase interaction process is presented below. Kd/IC50 values were determined using a standard dose response curve using the hill equation. Curves were fitted using a non-linear least square fit with the Levenberg-Marquardt algorithm.

The subject of assay [1] is THP-1 Acute Myeloid Leukemia cell line. The assay can be described thus: anticancer cell proliferation assay (WST-1). The class given is cell-based. The conditions noted are these: Table 4; read-out: IC50 Acute Myeloid Leukemia cell lines THP-1. The method, then: as §1, with “Anticancer” for “Bioactivity of the above-described compounds has been verified by an anticancer cell proliferation assay using the WST-1 (4-[3-(4-iodophenyl)-2-(4-nitrophenyl)-2H-5-tetrazoliol-1, 3-benzene disulfonate) colorimetric assay by Roche Life Sciences®. Anticancer”

Another assay has as its system MV4-11 (Leukemia). Nature of the assay: anticancer cell proliferation assay (WST-1). The format is cell-based. The conditions noted are these: Table 4; read-out: IC50 Acute Myeloid Leukemia cell lines MV4-11. The method, then: as §1, with “Anticancer” for “Bioactivity of the above-described compounds has been verified by an anticancer cell proliferation assay using the WST-1 (4-[3-(4-iodophenyl)-2-(4-nitrophenyl)-2H-5-tetrazoliol-1, 3-benzene disulfonate) colorimetric assay by Roche Life Sciences®. Anticancer”

The subject of assay [2] is MOLM-14 Acute Myeloid Leukemia cell line. Nature of the assay: anticancer cell proliferation assay (WST-1). The format is cell-based. The conditions noted are these: Table 4; read-out: IC50 Acute Myeloid Leukemia cell lines MOLM-14. How it is done: as §1, with “Anticancer” for “Bioactivity of the above-described compounds has been verified by an anticancer cell proliferation assay using the WST-1 (4-[3-(4-iodophenyl)-2-(4-nitrophenyl)-2H-5-tetrazoliol-1, 3-benzene disulfonate) colorimetric assay by Roche Life Sciences®. Anticancer”

For the next assay, the target named is SIRT-5 (Homo sapiens, UniProt Q9NXA8). Nature of the assay: inhibition of sirtuins. The class given is biochemical. The text has this:
Inhibition of Sirtuins, matrix metalloproteinase, bromodomains was also confirmed using standard protocols and the results are present in Table 2.

Chain of SIRT-5 (Q9NXA8 37-310): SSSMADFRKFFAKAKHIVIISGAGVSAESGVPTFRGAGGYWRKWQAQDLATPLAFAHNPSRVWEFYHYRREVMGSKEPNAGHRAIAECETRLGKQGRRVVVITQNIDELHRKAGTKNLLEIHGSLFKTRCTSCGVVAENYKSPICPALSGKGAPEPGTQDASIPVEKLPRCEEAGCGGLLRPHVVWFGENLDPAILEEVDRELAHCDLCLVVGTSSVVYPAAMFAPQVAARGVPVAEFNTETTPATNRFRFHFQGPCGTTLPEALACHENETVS

For `COc1ccc(-c2cc(=O)c3c(O)cc(O)cc3o2)cc1` [FBLGS-73], the pIC50 with Normal Bone marrow is less than 4.00; at FLT3(D835Y), 7.31; in assay [1], less than 4.00.
On to `COc1ccc(-c2cc(=O)c3c(O)cc(O)cc3o2)cc1O` [FBLGS-71], for which the pIC50 with Normal Bone marrow is less than 4.00; in the assay with MV4-11 (Leukemia), 5.49; in assay [2], 5.43; in assay [1], less than 4.00.
With `COc1cc(-c2cc(=O)c3c(O)c(C/C=C(\C)CCC=C(C)C)c(O)cc3o2)ccc1O` [FBL-03A], the pIC50 at SIRT-5 is 3.91.
